Test systems include OVCAR-5 ovarian; COLO 205 colon; IGROV1 ovarian; SW-620 colon; MALME-3M melanoma; MDA-MB-231 breast; U251 CNS; HOP-62 NSCLC; TK-10 renal; SNB-19 CNS.
Assay in all cases: NCI anticancer screen, dose series, 48 h

“And” between values parts separate entries of the source, which are not always exact repeats. Identical values can stand only once.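 Values below derive from 48-hour exposures of cells grown in 96-well plates, with endpoints linearly interpolated between the two concentrations bracketing the appropriate inhibition level. GI50: concentration for 50% inhibition of growth. Definition used: TGI = concentration required for complete inhibition of growth.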

For `O=c1[nH]cnc2cccc(Cl)c12`, the TGI in the assay on OVCAR-5 ovarian, with COLO 205 colon, with IGROV1 ovarian, with SW-620 colon, in the assay on MALME-3M melanoma and in the assay on MDA-MB-231 breast was more than 100 µM in each case. For the same molecule, the TGI in the assay with U251 CNS, in the assay with HOP-62 NSCLC, in the assay with TK-10 renal and with SNB-19 CNS was more than 100 µM in each case.
Take `Cc1cn2c(/C=C3\C(=O)N(C)c4ccc(O)cc43)c(C)nc2s1`: the GI50 in the assay on OVCAR-5 ovarian is 27800 nM; in the assay with COLO 205 colon it was 4290 nM; in the assay on IGROV1 ovarian it was 4260 nM; with SW-620 colon it was 3670 nM; in the assay with MALME-3M melanoma it was 8.58 µM; with MDA-MB-231 breast, 7890 nM. Further, the GI50 in the assay on U251 CNS was 5.64 µM; in the assay on HOP-62 NSCLC, 18.2 µM; with TK-10 renal, 16.1 µM; in the assay on SNB-19 CNS it was 3640 nM. The TGI in the assay on OVCAR-5 ovarian was more than 100 µM; with COLO 205 colon it was 27.5 µM; with IGROV1 ovarian it was 28.7 µM; in the assay with SW-620 colon, more than 100 µM; in the assay with MALME-3M melanoma it was more than 100 µM; with MDA-MB-231 breast it was more than 100 µM. The TGI in the assay with U251 CNS is more than 100 µM; in the assay with HOP-62 NSCLC, more than 100 µM; in the assay with TK-10 renal, more than 100 µM; in the assay with SNB-19 CNS, 39.1 µM.
Consider `COc1ccc2c(c1)[C@@]13CCCC[C@H]1[C@@H](C2)N(C)CC3=O`, for which the TGI turned out to be 33.3 µM in the assay on OVCAR-5 ovarian; 31.2 µM in the assay with COLO 205 colon; 32.8 µM with IGROV1 ovarian; 33.1 µM in the assay with MALME-3M melanoma; 36.4 µM in the assay with MDA-MB-231 breast; 58.9 µM in the assay with U251 CNS. In addition, the figures for the TGI with HOP-62 NSCLC, with TK-10 renal and in the assay on SNB-19 CNS were more than 100 µM, 40.7 µM and more than 100 µM, respectively.
Take `COc1ccc2[nH]c3c4c(ccc3c2c1)C(=O)C=CC4=O`: the TGI with OVCAR-5 ovarian was found to be 41.5 µM; in the assay on COLO 205 colon, 15.6 µM; with IGROV1 ovarian, 26.4 µM; in the assay on SW-620 colon, 6.63 µM; with MALME-3M melanoma it was 17.4 µM; in the assay with MDA-MB-231 breast, 35.4 µM. For the same molecule, the TGI was 36.5 µM in the assay on U251 CNS, more than 94.4 µM in the assay with HOP-62 NSCLC, 28.1 µM in the assay on TK-10 renal and more than 79.1 µM with SNB-19 CNS.
Regarding `CN(CCCNC(=O)Cc1ccc2ccc3cccc4ccc1c2c34)CCCNc1cc(-c2ccc3ccccc3c2)nc2ccccc12`, the GI50 in the assay with OVCAR-5 ovarian was 1820 nM; in the assay with COLO 205 colon it was 1420 nM; with IGROV1 ovarian it was 1700 nM; with SW-620 colon, 465 nM; in the assay with MDA-MB-231 breast, 1540 nM; in the assay on U251 CNS it was 1.6 µM. In addition, the GI50 in the assay on HOP-62 NSCLC was 1.71 µM; in the assay on TK-10 renal, 1.47 µM; in the assay on SNB-19 CNS, 1740 nM. In addition, the TGI was 3.28 µM with OVCAR-5 ovarian; 2.83 µM in the assay on COLO 205 colon; 3.58 µM in the assay with IGROV1 ovarian; 1.7 µM with SW-620 colon; 3.04 µM in the assay on MDA-MB-231 breast; 3.05 µM in the assay with U251 CNS. The figures for the TGI with HOP-62 NSCLC, with TK-10 renal and with SNB-19 CNS were 3.26 µM, 3.02 µM and 3.18 µM, respectively.
Consider `CC(C)N=c1cc2n(-c3ccc(Cl)cc3)c3ccccc3nc-2cc1Nc1ccc(Cl)cc1`, for which the GI50 in the assay with OVCAR-5 ovarian was 2150 nM; in the assay on COLO 205 colon it was 1170 nM and 1410 nM; in the assay on IGROV1 ovarian, 586 nM and 296 nM; in the assay with SW-620 colon it was 2960 nM; in the assay on MDA-MB-231 breast, 618 nM and 1070 nM; in the assay with U251 CNS it was 1.07 µM and 3.11 µM. Moreover, the GI50 was 4.71 µM and 4.81 µM in the assay with HOP-62 NSCLC; 2210 nM in the assay on SNB-19 CNS. Also, the TGI was more than 100 µM in the assay with OVCAR-5 ovarian; 4.21 µM and 5.03 µM with COLO 205 colon; more than 50 µM with IGROV1 ovarian; more than 100 µM with SW-620 colon; more than 50 µM in the assay on MDA-MB-231 breast; more than 100 µM in the assay on U251 CNS. Further, the values for the TGI in the assay with HOP-62 NSCLC, in the assay on TK-10 renal and with SNB-19 CNS were more than 100 µM, more than 100 µM and more than 50 µM, respectively.
Regarding `O=C(O)CC[N+]1=CCC(c2ccccc2)(c2ccccc2)O1`, the TGI in the assay with OVCAR-5 ovarian, in the assay on COLO 205 colon, in the assay with IGROV1 ovarian, in the assay on SW-620 colon, with MDA-MB-231 breast and in the assay with U251 CNS was more than 100 µM each time. For the same molecule, the TGI with HOP-62 NSCLC, in the assay with TK-10 renal and with SNB-19 CNS was more than 100 µM each time.
For `CCC(C)(C)c1ccc(OCCCCCCN2CCNCC2)cc1`, the GI50 with OVCAR-5 ovarian is 2110 nM; with COLO 205 colon, 1770 nM; in the assay on IGROV1 ovarian, 2630 nM; in the assay on SW-620 colon, 1950 nM; in the assay on MALME-3M melanoma, 1.94 µM; in the assay on MDA-MB-231 breast it was 1440 nM. Also, the GI50 is 1.68 µM in the assay on U251 CNS, 2.32 µM in the assay on HOP-62 NSCLC and 1.8 µM in the assay with TK-10 renal. The TGI in the assay on OVCAR-5 ovarian amounted to 5.39 µM; with COLO 205 colon, 3.51 µM; in the assay on IGROV1 ovarian it was 7.29 µM; in the assay on SW-620 colon, 3.97 µM; in the assay on MALME-3M melanoma it was 3.6 µM; with MDA-MB-231 breast, 3.11 µM. In addition, the TGI turned out to be 3.45 µM in the assay with U251 CNS, 6.09 µM with HOP-62 NSCLC and 3.46 µM in the assay on TK-10 renal.
Turning to `Cc1ccc(S(=O)(=O)NCCNc2nccc(-c3c(-c4ccc(F)cc4)nc4sccn34)n2)cc1`, the GI50 in the assay with OVCAR-5 ovarian was more than 100000 nM; in the assay on IGROV1 ovarian, 3090 nM; with MALME-3M melanoma, 5.07 µM; in the assay with MDA-MB-231 breast, 11000 nM; in the assay with U251 CNS, 4.72 µM; in the assay with HOP-62 NSCLC, 13.5 µM. Further, the GI50 was 7.8 µM in the assay on TK-10 renal and 9410 nM in the assay with SNB-19 CNS. Moreover, the TGI is more than 100 µM in the assay with OVCAR-5 ovarian; more than 100 µM in the assay on IGROV1 ovarian; more than 100 µM in the assay with MALME-3M melanoma; more than 100 µM with MDA-MB-231 breast; 22.6 µM in the assay on U251 CNS; 29.3 µM in the assay on HOP-62 NSCLC. The TGI with TK-10 renal amounted to 42.6 µM; in the assay with SNB-19 CNS, 48.4 µM.
Turning to `O=C(CSC(c1ccccc1)c1ccccc1)N/N=C/c1ccc(Cl)cc1Cl`, the GI50 was 31600 nM in the assay with OVCAR-5 ovarian; 19900 nM with IGROV1 ovarian; 42000 nM with SW-620 colon; 16 µM in the assay with MALME-3M melanoma; 22500 nM in the assay with MDA-MB-231 breast; 24 µM in the assay with U251 CNS. In addition, the GI50 in the assay on HOP-62 NSCLC was 42.3 µM; in the assay on TK-10 renal, 26 µM. Further, the TGI in the assay on OVCAR-5 ovarian is more than 100 µM; with IGROV1 ovarian it was 53.5 µM; in the assay on SW-620 colon, more than 100 µM; in the assay on MALME-3M melanoma it was 42 µM; in the assay with MDA-MB-231 breast it was more than 100 µM; in the assay on U251 CNS, 67.3 µM. The TGI was more than 100 µM with HOP-62 NSCLC and 72 µM in the assay on TK-10 renal.

Values taken from PubChem BioAssay (NCI).
